# Values of other authors as cited in patent US6054469A, “Substituted tetrahydropyridine derivatives acting on 5-HT receptors” (Merck Sharp & Dohme Ltd., priority 1995, dated 2000).
# Conditions: therapeutic doses
smiles,measurement,value
CNS(=O)(=O)Cc1ccc2[nH]cc(CCN(C)C)c2c1 [sumatriptan],adverse events on administration to humans,adverse cardiovascular events
